Laboratory results taken from PubChem BioAssay (NCI).
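Interpolation was linear, between the two tested concentrations surrounding the appropriate level; five concentrations were tested over 48 hours in 96-well plates. Abbreviation: GI50, concentration required for 50% inhibition of growth. The concentration for full growth arrest is given as TGI.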

What was measured:
Assay in all cases: growth of human tumour cells (NCI), 48 h
A498 renal = system: A498 renal
HCT-116 colon = system: HCT-116 colon
M14 melanoma = system: M14 melanoma
MALME-3M melanoma = system: MALME-3M melanoma
MDA-MB-231 breast = system: MDA-MB-231 breast
NCI-H23 lung = system: NCI-H23 lung
SK-MEL-28 melanoma = system: SK-MEL-28 melanoma
UACC-257 melanoma = system: UACC-257 melanoma
DLD-1 colon = system: DLD-1 colon
KM20L2 colon = system: KM20L2 colon

O=C(Nc1cccc(-n2cc(-c3ccncc3)c(-c3ccc(O)c(Cl)c3)n2)c1)c1ccc(N2CCOCC2)c(C(F)(F)F)c1
GI50 (A498 renal): > 50 µM
TGI (A498 renal): > 50 µM
GI50 (HCT-116 colon): 2.35 µM
TGI (HCT-116 colon): > 50 µM
GI50 (M14 melanoma): 2.75 µM
TGI (M14 melanoma): > 50 µM
GI50 (MALME-3M melanoma): 2.8 µM
TGI (MALME-3M melanoma): > 50 µM
GI50 (MDA-MB-231 breast): 0.857 µM
TGI (MDA-MB-231 breast): 3.09 µM
GI50 (NCI-H23 lung): 3.95 µM
TGI (NCI-H23 lung): > 50 µM
GI50 (SK-MEL-28 melanoma): 3.75 µM
TGI (SK-MEL-28 melanoma): > 50 µM
GI50 (UACC-257 melanoma): > 50 µM
TGI (UACC-257 melanoma): > 50 µM

COc1ccc(OC)c(-c2cc(C(=O)O)c3cc4ccccc4cc3n2)c1
TGI (A498 renal): > 100 µM
TGI (HCT-116 colon): > 100 µM
TGI (M14 melanoma): > 100 µM
TGI (MALME-3M melanoma): > 100 µM
TGI (MDA-MB-231 breast): > 100 µM
TGI (NCI-H23 lung): > 100 µM
TGI (SK-MEL-28 melanoma): > 100 µM
TGI (UACC-257 melanoma): > 100 µM

CN1CCc2cc(O)c3cc2C1Cc1ccc(cc1)Oc1cc(ccc1O)CC1c2c(cc4c(c2O3)OCO4)CCN1C (configuration not stated)
TGI (DLD-1 colon): > 100 µM
TGI (HCT-116 colon): > 100 µM
TGI (KM20L2 colon): 45.9 µM
TGI (M14 melanoma): 32.2 µM
TGI (NCI-H23 lung): > 100 µM
TGI (SK-MEL-28 melanoma): 46.4 µM

CC(=O)OCc1c(C)c2ccccc2n1C(C)=O
TGI (A498 renal): > 100 µM
TGI (HCT-116 colon): > 100 µM
TGI (KM20L2 colon): > 100 µM
TGI (M14 melanoma): > 100 µM
TGI (MALME-3M melanoma): 73.7 µM
TGI (NCI-H23 lung): > 100 µM
TGI (SK-MEL-28 melanoma): > 100 µM
TGI (UACC-257 melanoma): 89.8 µM

C/C=C(\C)C(=O)OC1C2C(C)C(=O)OC2C(O)C(C)C2C=CC(=O)C21C (configuration not stated)
TGI (A498 renal): 53.3 µM
TGI (HCT-116 colon): 22.6 µM
TGI (M14 melanoma): 31.3 µM
TGI (MALME-3M melanoma): 27 µM
TGI (MDA-MB-231 breast): 13.7 µM
TGI (NCI-H23 lung): 27.1 µM
TGI (SK-MEL-28 melanoma): 28.1 µM
TGI (UACC-257 melanoma): 30.2 µM

COc1cc([N+](=O)[O-])c(OC)cc1-c1nc2n(c1/C(N)=N/C(=N)N)CCS2
GI50 (A498 renal): > 100 µM
TGI (A498 renal): > 100 µM
GI50 (HCT-116 colon): 20.8 µM
TGI (HCT-116 colon): > 100 µM
GI50 (M14 melanoma): > 100 µM
TGI (M14 melanoma): > 100 µM
GI50 (MALME-3M melanoma): 18.7 µM
TGI (MALME-3M melanoma): 60.6 µM
GI50 (MDA-MB-231 breast): 27 µM
TGI (MDA-MB-231 breast): > 100 µM
GI50 (NCI-H23 lung): 23.3 µM
TGI (NCI-H23 lung): 87.1 µM
GI50 (SK-MEL-28 melanoma): > 100 µM
TGI (SK-MEL-28 melanoma): > 100 µM
GI50 (UACC-257 melanoma): 15.9 µM
TGI (UACC-257 melanoma): 57 µM

COc1cc2c3c(c1OCc1ccccc1)NCCC3NCC2 (configuration not stated)
TGI (A498 renal): > 100 µM
TGI (DLD-1 colon): > 100 µM
TGI (HCT-116 colon): > 100 µM
TGI (KM20L2 colon): > 100 µM
TGI (M14 melanoma): > 100 µM
TGI (MALME-3M melanoma): > 100 µM
TGI (NCI-H23 lung): > 100 µM
TGI (UACC-257 melanoma): > 100 µM

CC#CC(=O)N[C@H]1CCCN(c2c(F)cc(C(N)=O)c3[nH]c(C)c(C)c23)C1
GI50 (A498 renal): 12 µM
TGI (A498 renal): 26.6 µM
GI50 (HCT-116 colon): 16 µM
TGI (HCT-116 colon): 31.2 µM
GI50 (M14 melanoma): 18.6 µM
TGI (M14 melanoma): 42 µM
GI50 (MALME-3M melanoma): 16.2 µM
TGI (MALME-3M melanoma): 34.3 µM
GI50 (MDA-MB-231 breast): 14 µM
TGI (MDA-MB-231 breast): 29.1 µM
GI50 (NCI-H23 lung): 19.5 µM
TGI (NCI-H23 lung): 41.8 µM
GI50 (SK-MEL-28 melanoma): 17.4 µM
TGI (SK-MEL-28 melanoma): 35.6 µM
GI50 (UACC-257 melanoma): 14.5 µM
TGI (UACC-257 melanoma): 34.9 µM

O=C(c1ccncc1)N1CCN(C2=NS(=O)(=O)c3ccccc3N2c2ccccc2)CC1
GI50 (A498 renal): 19.7 µM
TGI (A498 renal): 36.9 µM
GI50 (HCT-116 colon): 14.5 µM
TGI (HCT-116 colon): 33.3 µM
GI50 (M14 melanoma): 13.3 µM
TGI (M14 melanoma): > 100 µM
GI50 (MALME-3M melanoma): 23.6 µM
TGI (MALME-3M melanoma): 51.8 µM
GI50 (MDA-MB-231 breast): 30.7 µM
TGI (MDA-MB-231 breast): 75.2 µM
GI50 (NCI-H23 lung): 7.43 µM
TGI (NCI-H23 lung): 41.6 µM
GI50 (SK-MEL-28 melanoma): 15.6 µM
TGI (SK-MEL-28 melanoma): 38.7 µM
GI50 (UACC-257 melanoma): 21.7 µM
TGI (UACC-257 melanoma): 63.8 µM

Cc1nc2sc(C(=O)Nc3cccc(Cl)c3C)c(N)c2cc1C(=O)c1ccccc1
GI50 (A498 renal): 0.124 µM
TGI (A498 renal): 1.64 µM
GI50 (HCT-116 colon): 0.22 µM
TGI (HCT-116 colon): > 50 µM
GI50 (M14 melanoma): 0.214 µM
TGI (M14 melanoma): > 50 µM
GI50 (MALME-3M melanoma): 0.811 µM
TGI (MALME-3M melanoma): > 50 µM
GI50 (MDA-MB-231 breast): 0.463 µM
TGI (MDA-MB-231 breast): > 50 µM
GI50 (NCI-H23 lung): 1.14 µM
TGI (NCI-H23 lung): > 50 µM
GI50 (SK-MEL-28 melanoma): 1.45 µM
TGI (SK-MEL-28 melanoma): > 50 µM
GI50 (UACC-257 melanoma): 14.6 µM
TGI (UACC-257 melanoma): > 50 µM

CNC(=O)OCc1cc2ccncc2c2c1[nH]c1ccccc12
TGI (DLD-1 colon): > 100 µM
TGI (HCT-116 colon): > 100 µM
TGI (KM20L2 colon): > 100 µM
TGI (M14 melanoma): > 100 µM
TGI (MALME-3M melanoma): > 100 µM
TGI (NCI-H23 lung): > 100 µM
TGI (SK-MEL-28 melanoma): > 100 µM
TGI (UACC-257 melanoma): > 100 µM

COc1ccc(CCN2COc3ccc4ccc(=O)oc4c3C2)cc1OC
TGI (A498 renal): > 100 µM
TGI (HCT-116 colon): > 100 µM
TGI (M14 melanoma): > 100 µM
TGI (MALME-3M melanoma): > 100 µM
TGI (MDA-MB-231 breast): > 100 µM
TGI (NCI-H23 lung): > 100 µM
TGI (SK-MEL-28 melanoma): > 100 µM
TGI (UACC-257 melanoma): > 100 µM

CCCC(=O)Nc1ncnc2c1ncn2C1OC2COP(=O)(O)OC2C1OC(=O)CCC (configuration not stated)
TGI (A498 renal): 92.8 µM
GI50 (HCT-116 colon): > 1000 µM
TGI (HCT-116 colon): > 1000 µM
GI50 (M14 melanoma): > 1000 µM
TGI (M14 melanoma): > 1000 µM
GI50 (MALME-3M melanoma): > 1000 µM
TGI (MALME-3M melanoma): > 1000 µM
TGI (MDA-MB-231 breast): > 1000 µM
GI50 (NCI-H23 lung): > 1000 µM
TGI (NCI-H23 lung): > 1000 µM
GI50 (SK-MEL-28 melanoma): > 1000 µM
TGI (SK-MEL-28 melanoma): > 1000 µM
GI50 (UACC-257 melanoma): > 1000 µM
TGI (UACC-257 melanoma): > 1000 µM

O=C(NCc1cccs1)OC1CC2CCC1C2 (configuration not stated)
TGI (A498 renal): > 100 µM
TGI (HCT-116 colon): > 100 µM
TGI (M14 melanoma): > 100 µM
TGI (MALME-3M melanoma): > 100 µM
TGI (MDA-MB-231 breast): > 100 µM
TGI (NCI-H23 lung): > 100 µM
TGI (SK-MEL-28 melanoma): > 100 µM
TGI (UACC-257 melanoma): > 100 µM

O=C(O)C1CCCCC1C(=O)Nc1nc2ccccc2[nH]1 (configuration not stated)
TGI (A498 renal): > 100 µM
TGI (HCT-116 colon): > 100 µM
TGI (M14 melanoma): > 100 µM
TGI (MALME-3M melanoma): > 100 µM
TGI (MDA-MB-231 breast): > 100 µM
TGI (NCI-H23 lung): > 100 µM
TGI (SK-MEL-28 melanoma): > 100 µM
TGI (UACC-257 melanoma): > 100 µM

CS(=O)(=O)c1ccc(-c2[nH]c3ccc(F)cc3c2/C=N/NC(N)=S)cc1
GI50 (A498 renal): 0.347 µM
TGI (A498 renal): 5.18 µM
GI50 (HCT-116 colon): 0.437 µM
TGI (HCT-116 colon): > 100 µM
GI50 (M14 melanoma): 0.312 µM
TGI (M14 melanoma): 22.3 µM
GI50 (MALME-3M melanoma): 7.83 µM
TGI (MALME-3M melanoma): 41 µM
GI50 (MDA-MB-231 breast): 1.65 µM
TGI (MDA-MB-231 breast): > 100 µM
GI50 (NCI-H23 lung): 4.66 µM
TGI (NCI-H23 lung): > 100 µM
GI50 (SK-MEL-28 melanoma): 12.3 µM
TGI (SK-MEL-28 melanoma): > 100 µM
GI50 (UACC-257 melanoma): > 100 µM
TGI (UACC-257 melanoma): > 100 µM

CCNC(=O)c1ccc2c(c1)nc(-c1ccc(Cl)cc1)n2-c1cc(C(C)(C)C)[nH]n1
GI50 (A498 renal): 2.24 µM
TGI (A498 renal): 6.53 µM
GI50 (HCT-116 colon): 3.17 µM
TGI (HCT-116 colon): 12.3 µM
GI50 (M14 melanoma): 2.97 µM
TGI (M14 melanoma): 10.8 µM
GI50 (MALME-3M melanoma): 3.47 µM
TGI (MALME-3M melanoma): 17.2 µM
GI50 (MDA-MB-231 breast): 5.56 µM
TGI (MDA-MB-231 breast): 28.5 µM
GI50 (NCI-H23 lung): 2.78 µM
TGI (NCI-H23 lung): 20.3 µM
GI50 (SK-MEL-28 melanoma): 2.78 µM
TGI (SK-MEL-28 melanoma): 11.7 µM
GI50 (UACC-257 melanoma): 3.59 µM
TGI (UACC-257 melanoma): 30.5 µM

O=C1CCCC(=O)C1C(=O)c1ccc(C(F)(F)F)cc1[N+](=O)[O-]
GI50 (A498 renal): > 100 µM
TGI (A498 renal): > 100 µM
GI50 (HCT-116 colon): > 100 µM
TGI (HCT-116 colon): > 100 µM
GI50 (M14 melanoma): > 100 µM
TGI (M14 melanoma): > 100 µM
GI50 (MALME-3M melanoma): > 100 µM
TGI (MALME-3M melanoma): > 100 µM
GI50 (MDA-MB-231 breast): > 100 µM
TGI (MDA-MB-231 breast): > 100 µM
GI50 (NCI-H23 lung): > 100 µM
TGI (NCI-H23 lung): > 100 µM
GI50 (SK-MEL-28 melanoma): > 100 µM
TGI (SK-MEL-28 melanoma): > 100 µM
GI50 (UACC-257 melanoma): > 100 µM
TGI (UACC-257 melanoma): > 100 µM
